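Step 1: Grow cells in 96-well plates. Step 2: Expose to compound for 48 hours at 5 concentrations. Step 3: Interpolate endpoints linearly; if unreached, use highest concentration. GI50 = concentration required for 50% inhibition of growth.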 Active and inactive are the calls of the source. Cut-off read from the data, not from the text of the source: active = GI50 up to about 1.1 µM and inactive = higher.
Columns and labels:
Test in all cases: inhibition of tumour cell growth, NCI panel, 48 h
786-0 = tested on: 786-0
A498 = tested on: A498
A549 = tested on: A549
ACHN = tested on: ACHN
CAKI-1 = tested on: CAKI-1
COLO 205 = tested on: COLO 205
DU-145 = tested on: DU-145
HOP-62 = tested on: HOP-62
HOP-92 = tested on: HOP-92
MDA-MB-435 = tested on: MDA-MB-435
Malme-3M = tested on: Malme-3M
NCI/ADR-RES = tested on: NCI/ADR-RES
SK-MEL-2 = tested on: SK-MEL-2
SNB-19 = tested on: SNB-19
SW-620 = tested on: SW-620
T47D = tested on: T47D
U-251 = tested on: U-251
UACC-257 = tested on: UACC-257
UO-31 = tested on: UO-31
SR = tested on: SR

## Cn1ncc2c(Nc3cccc(Cl)c3)nc(Nc3cccc(Cl)c3)nc21
786-0
  GI50: 2.43 µM (inactive)
A498
  GI50: 5.98 µM (inactive)
A549
  GI50: 8.11 µM (inactive)
ACHN
  GI50: 10.5 µM (inactive)
CAKI-1
  GI50: 7.6 µM (inactive)
COLO 205
  GI50: > 24.7 µM (inactive)
DU-145
  GI50: 14.6 µM (inactive)
HOP-62
  GI50: 17.3 µM (inactive)
HOP-92
  GI50: 10.9 µM (inactive)
MDA-MB-435
  GI50: 10.9 µM (inactive)
Malme-3M
  GI50: 17.6 µM (inactive)
NCI/ADR-RES
  GI50: 9.71 µM (inactive)
SK-MEL-2
  GI50: 14.9 µM (inactive)
SNB-19
  GI50: 19.1 µM (inactive)
SW-620
  GI50: 11.2 µM (inactive)
T47D
  GI50: 10.2 µM (inactive)
U-251
  GI50: 8.04 µM (inactive)
UACC-257
  GI50: 8.73 µM (inactive)
UO-31
  GI50: 9.73 µM (inactive)

## O=C(O[C@H](/C=C/c1ccccc1)P1(=O)N(Cc2ccccc2)[C@H]2CCCC[C@@H]2N1Cc1ccccc1)c1ccccc1
786-0
  GI50: 3.7 µM (inactive)
A498
  GI50: 7.48 µM (inactive)
A549
  GI50: 3.7 µM (inactive)
ACHN
  GI50: 4.56 µM (inactive)
CAKI-1
  GI50: 2.17 µM (inactive)
COLO 205
  GI50: 1.68 µM (inactive)
HOP-62
  GI50: 5.51 µM (inactive)
HOP-92
  GI50: 1.99 µM (inactive)
MDA-MB-435
  GI50: 3.05 µM (inactive)
Malme-3M
  GI50: 2.89 µM (inactive)
NCI/ADR-RES
  GI50: 3.05 µM (inactive)
SK-MEL-2
  GI50: 2.39 µM (inactive)
SNB-19
  GI50: 5.31 µM (inactive)
SR
  GI50: 3.35 µM (inactive)
SW-620
  GI50: 3.72 µM (inactive)
T47D
  GI50: 0.877 µM (active)
U-251
  GI50: 4.01 µM (inactive)
UACC-257
  GI50: 9.84 µM (inactive)
UO-31
  GI50: 4.61 µM (inactive)

## CCOC(=O)C(Cl)(NC(=O)c1c(F)c(F)c(F)c(F)c1F)C(F)(F)F (stereo not drawn)
786-0
  GI50: > 100 µM (inactive)
A549
  GI50: > 100 µM (inactive)
ACHN
  GI50: > 100 µM (inactive)
CAKI-1
  GI50: 20 µM (inactive)
COLO 205
  GI50: > 100 µM (inactive)
DU-145
  GI50: > 100 µM (inactive)
HOP-62
  GI50: > 100 µM (inactive)
HOP-92
  GI50: 28.3 µM (inactive)
MDA-MB-435
  GI50: > 100 µM (inactive)
Malme-3M
  GI50: > 100 µM (inactive)
NCI/ADR-RES
  GI50: > 100 µM (inactive)
SK-MEL-2
  GI50: > 100 µM (inactive)
SNB-19
  GI50: > 100 µM (inactive)
SR
  GI50: 9.4 µM (inactive)
SW-620
  GI50: > 100 µM (inactive)
T47D
  GI50: > 100 µM (inactive)
U-251
  GI50: > 100 µM (inactive)
UACC-257
  GI50: > 100 µM (inactive)
UO-31
  GI50: > 100 µM (inactive)

## CS/C=C\C(=O)O[C@H]1C[C@@H]2[C@@H](O)c3occ(C)c3C[C@]2(C)[C@@H](C)C1
786-0
  GI50: 16.6 µM (inactive)
ACHN
  GI50: 24.9 µM (inactive)
CAKI-1
  GI50: 39.7 µM (inactive)
COLO 205
  GI50: 17.9 µM (inactive)
DU-145
  GI50: 27.9 µM (inactive)
HOP-62
  GI50: 23.2 µM (inactive)
HOP-92
  GI50: 25.8 µM (inactive)
MDA-MB-435
  GI50: 23.1 µM (inactive)
Malme-3M
  GI50: 18.3 µM (inactive)
NCI/ADR-RES
  GI50: 18.5 µM (inactive)
SNB-19
  GI50: 35.6 µM (inactive)
SR
  GI50: 35.1 µM (inactive)
SW-620
  GI50: 33.3 µM (inactive)
T47D
  GI50: 24.4 µM (inactive)
U-251
  GI50: 2.96 µM (inactive)
UACC-257
  GI50: 14.8 µM (inactive)

## CN1N=C(c2ccncc2)OC1c1ccc(Cl)cc1Cl (stereo not drawn)
786-0
  GI50: 97.7 µM (inactive)
A498
  GI50: 49.9 µM (inactive)
A549
  GI50: > 100 µM (inactive)
ACHN
  GI50: 74.6 µM (inactive)
COLO 205
  GI50: 36.1 µM (inactive)
DU-145
  GI50: > 100 µM (inactive)
HOP-62
  GI50: > 100 µM (inactive)
MDA-MB-435
  GI50: 63.7 µM (inactive)
NCI/ADR-RES
  GI50: 71.8 µM (inactive)
SK-MEL-2
  GI50: > 100 µM (inactive)
SNB-19
  GI50: > 100 µM (inactive)
SW-620
  GI50: > 100 µM (inactive)
T47D
  GI50: 60.3 µM (inactive)
U-251
  GI50: > 100 µM (inactive)
UACC-257
  GI50: > 100 µM (inactive)
UO-31
  GI50: 93.5 µM (inactive)

## CSc1c(C#N)c(N)n(-c2ccc(C)cc2)c(=O)c1C#N
786-0
  GI50: > 100 µM (inactive)
A498
  GI50: 50.8 µM (inactive)
A549
  GI50: > 100 µM (inactive)
CAKI-1
  GI50: > 100 µM (inactive)
COLO 205
  GI50: > 100 µM (inactive)
DU-145
  GI50: > 100 µM (inactive)
MDA-MB-435
  GI50: > 100 µM (inactive)
Malme-3M
  GI50: > 100 µM (inactive)
NCI/ADR-RES
  GI50: > 100 µM (inactive)
SK-MEL-2
  GI50: > 100 µM (inactive)
SNB-19
  GI50: > 100 µM (inactive)
SR
  GI50: > 100 µM (inactive)
SW-620
  GI50: > 100 µM (inactive)
T47D
  GI50: > 100 µM (inactive)
U-251
  GI50: > 100 µM (inactive)
UACC-257
  GI50: > 100 µM (inactive)
UO-31
  GI50: 50.4 µM (inactive)

## COc1ccc(C2C=C(c3ccccc3)Nc3nnnn32)cc1 (stereo not drawn)
786-0
  GI50: 27.5 µM (inactive)
A498
  GI50: 34.4 µM (inactive)
A549
  GI50: 41.3 µM (inactive)
ACHN
  GI50: 24.1 µM (inactive)
CAKI-1
  GI50: 54 µM (inactive)
COLO 205
  GI50: > 100 µM (inactive)
DU-145
  GI50: 28.4 µM (inactive)
HOP-62
  GI50: 25.5 µM (inactive)
MDA-MB-435
  GI50: 76.6 µM (inactive)
NCI/ADR-RES
  GI50: > 100 µM (inactive)
SK-MEL-2
  GI50: 38.7 µM (inactive)
SNB-19
  GI50: 97.9 µM (inactive)
SR
  GI50: 26.4 µM (inactive)
SW-620
  GI50: 37.3 µM (inactive)
T47D
  GI50: 19 µM (inactive)
U-251
  GI50: 19.7 µM (inactive)
UACC-257
  GI50: 98.4 µM (inactive)
UO-31
  GI50: 90.8 µM (inactive)

## CN(C)CCCN1C(=O)N(CCCN(C)C)c2c3cc(O)ccc3nc3c([N+](=O)[O-])ccc1c23
786-0
  GI50: 8.13 µM (inactive)
A498
  GI50: 22 µM (inactive)
A549
  GI50: 13.6 µM (inactive)
ACHN
  GI50: 16.6 µM (inactive)
CAKI-1
  GI50: 23.3 µM (inactive)
COLO 205
  GI50: 13.7 µM (inactive)
DU-145
  GI50: 27.9 µM (inactive)
HOP-62
  GI50: 17.2 µM (inactive)
HOP-92
  GI50: 4.82 µM (inactive)
MDA-MB-435
  GI50: 18 µM (inactive)
Malme-3M
  GI50: 17.8 µM (inactive)
NCI/ADR-RES
  GI50: 92.9 µM (inactive)
SK-MEL-2
  GI50: 15.6 µM (inactive)
SNB-19
  GI50: 10.9 µM (inactive)
SW-620
  GI50: 16 µM (inactive)
T47D
  GI50: 30.3 µM (inactive)
U-251
  GI50: 14.2 µM (inactive)
UACC-257
  GI50: 30.8 µM (inactive)
UO-31
  GI50: 20.5 µM (inactive)

Reference: ChEMBL document CHEMBL1201862, “PubChem BioAssay data set” (2004)
